Measured values as given in PMC12371487, “Phenylalkyl Acetophenones and Anacardic Acids from Knema oblongifolia with Synthetic Analogues as Anti-infectives and Antibacterial Agents” (ACS Bio & Med Chem Au, 2025).
Converted amounts (≈) assume the structure as drawn. “And” between values parts separate entries of the source, which are not always exact repeats. Equal entries are not always repeated. Where two headings read alike, the source gives them in different places.

Experiments:
[1] = tested on: Dictyostelium discoideum (Dd) in infection; assay: Dd-Mm infection assay: host amoeba growth (fluorescence); type: cell-based; details: infected Dd, fluorescence AUC over 72 h at 25 °C, 6-concentration curve, top 100 μM, 1:3 steps, IC50 interpolated
Method: (§1) Plant extracts, fractions, or isolated compounds were stored at −20 °C and wrapped in aluminum foil if necessary. All manipulations with extracts, fractions, or compounds were performed under a sterile hood. Extracts, fractions, and compounds were resuspended throughout in DMSO to best solubilize extracts with diverse constituents. Extracts, fractions, or compounds were added to the assay plate in a 1:100 dilution. Assay solutions of extracts, fractions, and compounds were prepared in 96-well plates, stored at −20 °C, and thawed before the experiment at room temperature or warmer with or without shaking/vortexing to obtain a clear assay solution. Extracts were tested at 25 μg/mL and purified compounds in a dose–response curve of 6 concentrations with 100 μM being the top concentration and a 1:3 dilution step between each testing concentration. Since fractions were not weighed individually, the injection mass was used to calculate an average mass per fraction and thus a nominal mass concentration. Fractions were tested at a nominal concentration of 10 μg/mL.
(§2) As described in Nitschke et al. and Mottet et al., Dd Ax2(ka) expressing mCherry from the act5 chromosomal locus was infected with Mm M strain expressing the lux operon (luxCDABE) , by spinoculation.
(§3) Briefly, the day before the experiment, Mm was cultivated in 7H9 broth (Becton Dickinson, Difco Middlebrook 7H9) supplemented with 10% OADC (Becton Dickinson) and 0.05% tyloxapol (Sigma-Aldrich) and 50 μg/mL kanamycin at 32 °C overnight with continuous shaking. Additionally, the day before the experiment, 10^7 amoebae were plated in HL5-C in a 10 cm Petri dish (Falcon). On the day of the experiment, a volume of the Mm culture corresponding to a multiplicity of infection of 25 with respect to the number of amoebae in the Petri dish was added to the semiconfluent amoebae monolayer. Subsequently, the Petri dishes were centrifuged twice at 500g, as described in Mottet et al. To remove extracellular bacteria, dishes were rinsed with fresh HL5-C, and the infected cell population was resuspended in HL5-C with 5 U/mL penicillin and 5 μg/mL streptomycin (Gibco) to inhibit the extracellular growth of bacteria during the course of the experiment.
(§4) For testing fractions and purified compounds, 20 μL of infected cell suspension was plated into each well of a 384-well plate (Interchim FP-BA8240) to an effective cell number of 1 × 10^4 cells per well. Fractions or compounds including a vehicle control (0.3% DMSO final concentration) and a positive control (rifabutin, 10 μM final concentration) were added using an electronic multipipette (Sartorius). Subsequently, the well plates were sealed with a gas impermeable membrane (H769.1, Carl Roth), briefly centrifuged, and intracellular bacterial growth was monitored using an Agilent BioTek H1 plate reader and an Agilent BioTek BioStack plate stacker by recording luminescence over 72 h at 25 °C with readings taken every hour. Fluorescence was also recorded to monitor amoeba growth.
(§5) For both assays, growth curves were obtained by measuring the luminescence and fluorescence as a proxy for bacterial growth and host growth, respectively, for 72 h with time-points taken every hour. The “normalized residual growth” was computed by calculating the area under the curve (AUC, trapezoid method) and normalizing it to the vehicle control (0.3% DMSO, set at 1) and a baseline curve (set at 0). The baseline curve was calculated by taking the median of the first measurement of all wells in a plate and extrapolating it over the complete time course. The threshold for hit detection was arbitrarily fixed at a cutoff of normalized residual growth ≤0.5. Normalized values were averaged over technical and biological replicates (all experiments on isolated compounds have at least n = 3 and N = 3, whereas the primary extract screening and microfractions testing had values of n = 1 and N = 3). […]

[2] = tested on: Mycobacterium marinum (Mm) in broth; assay: Mm growth in broth (antibiotic assay, luminescence); type: cell-based; details: 72 h; for IC50: read-out: IC50 on Mm in broth
Method: as §1, with “Extracts, fractions, and compounds were resuspended throughout in DMSO to best solubilize extracts with diverse constituents.” left out
For testing bacteria in broth, the preculture was diluted to a bacterial density of 3.75 × 10^5 bacteria per mL in 7H9 medium. Plating bacteria and compounds or fractions was performed analogously to the infection assay described above. Bacteria growth was monitored with the Agilent BioTek H1 plate reader by recording luminescence at 32 °C.
For both assays, growth curves were obtained by measuring the luminescence and fluorescence as a proxy for bacterial growth and host growth, respectively, for 72 h with time-points taken every hour. The “normalized residual growth” was computed by calculating the area under the curve (AUC, trapezoid method) and normalizing it to the vehicle control (0.3% DMSO, set at 1) and a baseline curve (set at 0). The baseline curve was calculated by taking the median of the first measurement of all wells in a plate and extrapolating it over the complete time course. The threshold for hit detection was arbitrarily fixed at a cutoff of normalized residual growth ≤0.5.
This procedure was also applied to screening extracts with slight modifications. The day before the experiment we preplated 10 μL of HL5-C using a dispenser (Thermo Multidrop), subsequently we preplated 2.2 μL of dissolved extracts from 96-well plates into quadrants 1, 2, and 3 of 384-well plates, whereas quadrant 4 was used for positive and vehicle controls. Preplating of extracts was performed using a liquid handler (Agilent Bravo). In total, 24 extract plates were distributed in triplicate into […] 384-well plates, amounting to 24 assay plates. The prepared plates were sealed and stored at 4 °C overnight. On the day of the experiment, nine 10 cm Petri dishes were infected (as described before) and grouped into three pools. The cell suspension was adjusted to 10^6 cells/mL, and 10 μL was plated into the 24 assay plates, resulting in 10^4 cells per well, as used for conventional infection experiments. Plates were sealed and placed in the plate stacker that supplied the plate reader. The same procedure was used to screen the same extracts on Mm in a broth. For both assays, the first time points and a time point after 72 h were recorded. Subsequently, we normalized the end point, first with the median of the full assay plate at the first time point and second with the end point of the vehicle controls in the respective assay plate.
For IC50 estimation, we used a rudimentary approach of interpolating the sample concentration between the two normalized residual growth values, which were closest to a value of 0.5.

[3] = tested on: Mycobacterium marinum (Mm) in infection of Dictyostelium discoideum; assay: Dd-Mm infection assay: intracellular Mm growth (luminescence); type: cell-based; details: for IC50: Mm inside Dd, luminescence AUC over 72 h at 25 °C, 6-concentration curve, top 100 μM, 1:3 steps, IC50 interpolated
Method: as §1, §2, §3, §4, §5

[4] = tested on: Staphylococcus aureus (Sa) Newman strain; details: literature report; reference number not shown in text; cited from earlier work
[5] = tested on: Staphylococcus aureus (Sa) Newman strain; assay: MIC determination in Mueller-Hinton broth (CLSI) on Sa; type: cell-based; details: Mueller-Hinton broth, CLSI; for MIC: Staphylococcus aureus, NEWMAN, read-out: MIC on Sa
Method: MICs were determined in Mueller–Hinton (MH) broth according to CLSI guidelines and were repeated at least on three different occasions.
The Newman strain ofS. aureus and the UCBPP-PA14 strain ofP. aeruginosa were used in this study.

[6] = Mm in 7H9 broth, luminescence at 32 °C, IC50 interpolated

With CCCCCCCCCCCCCCCc1cccc(O)c1C(=O)O [anacardic acid] the “IC50 on Dd in infection” value [1] was “not active”, the “IC50 on Mm in broth” value [2, 6] was “not active” and the IC50 [3] was 22.2 µM. For the same molecule, the “active dose against Sa (already reported)” value [4] was 25 μg mL^–1, the “MIC on Sa” value [5] was 16 mg·L–1 and the “MIC on Sa” value ([5]; listed as Anacardic acid) was 16 μg·mL^–1.
“5-Chloro-2,4-dihydroxychalcone [Compound 22]” showed an IC50 [1] of 1.76 µM, an IC50 [2, 6] of 47.6 µM and an IC50 [3] of 1.76 µM. For the same molecule, the “MIC on Sa” value [5] was 32 μg·mL^–1 and 32 mg·L–1.
In the case of O=C(O)c1c(O)cccc1CCCCCCc1ccccc1 [Compound 7, Knemolic acid C], the IC50 ([1]; Dictyostelium discoideum) is reported as 7.41 µM, the “IC50 on Mm in broth” value [2, 6] is reported as “not active” and the IC50 [3] is reported as 7.41 µM. The MIC [5] was 8 µg/mL (≈ 26.8 µM).
With CC(=O)c1c(O)cc(O)c(Cl)c1CCCCCCc1ccccc1 [Compound 28, 1-(3-Chloro-4,6-dihydroxy-2-(6-phenylhexyl)phenyl)ethan-1-one] the IC50 ([1]; Dictyostelium discoideum) was 0.82 µM, the IC50 ([2]; Mycobacterium marinum) was 22.2 µM and the IC50 [3] was 2.47 µM. For the same molecule, the MIC [5] was 4 µg/mL (≈ 11.5 µM).
“3,5-Dichloro-2,4-dihydroxychalcone [Compound 23]” showed an IC50 [1] of 1.76 µM, an IC50 [2, 6] of 47.6 µM and an IC50 [3] of 1.76 µM. For the same molecule, the “MIC on Sa” value [5] was 4 μg·mL^–1 and 4 mg·L–1.
In the case of O=C(O)c1c(O)cccc1CCCCc1ccc2c(c1)OCO2 [Compound 3, Knemolic acid A], the IC50 ([1]; Dictyostelium discoideum) is reported as 66.7 µM, the “IC50 on Mm in broth” value [2, 6] is reported as “Not active” and the IC50 [3] is reported as 66.7 µM. It also gave an MIC [5] of 8 µg/mL (≈ 25.5 µM).
Work on “3-Chloro-2,4-dihydroxychalcone [Compound 21]” yielded an IC50 [1] of 0.59 µM, an IC50 [2, 6] of 47.6 µM and an IC50 [3] of 1.76 µM. For the same molecule, the “MIC on Sa” value [5] was 32–64 mg·L–1.
For CCCCCCCCCCCCCc1cccc(O)c1C(=O)O [Compound 12, 6-Tridecylsalicylic acid], the IC50 ([1]; Dictyostelium discoideum) was 66.7 µM, the “IC50 on Mm in broth” value [2, 6] was “Not active” and the IC50 [3] was 66.7 µM. For the same molecule, the “MIC on Sa” value [5] was “Not active”.
For CC(=O)c1c(O)cc(O)cc1CCCCc1ccc2c(c1)OCO2 [Compound 1, Knemolone A], the IC50 ([1]; Dictyostelium discoideum) was 22.2 µM, the “IC50 on Mm in broth” value [2, 6] was “Not active” and the IC50 [3] was 22.2 µM. For the same molecule, the “MIC on Sa” value [5] was “Not active”.
With O=C(/C=C/c1c2ccccc2cc2ccccc12)c1cc(Cl)c(O)cc1O [Compound 27, (E)-3-(Anthracen-9-yl)-1-(5-chloro-2,4-dihydroxyphenyl)prop-2-en-1-one] the IC50 ([1]; Dictyostelium discoideum) was 15.9 µM, the “IC50 on Mm in broth” value [2, 6] was “not active” and the IC50 [3] was 0.59 µM. The “specificity window (IC50 on Dd vs IC50 on intracellular Mm)” value ([3]; ratio of IC50 against Dd growth to IC50 on intracellular Mm) was 25 fold, the “MIC on Sa” value [5] was 2 mg·L–1 and the MIC [5] was 2 µg/mL (≈ 5.34 µM).
With CC(=O)c1c(O)cc(O)cc1CCCCc1ccccc1 [Compound 2, Knemolone B] the IC50 ([1]; Dictyostelium discoideum) was 22.2 µM, the “IC50 on Mm in broth” value [2, 6] was “Not active” and the IC50 [3] was 22.2 µM. The MIC [5] was 32 µg/mL (≈ 113 µM).
Molecule O=C(/C=C/c1cccc2ccccc12)c1cc(Cl)c(O)cc1O [Compound 26, (E)-1-(5-Chloro-2,4-dihydroxyphenyl)-3-(naphthalen-1-yl)prop-2-en-1-one] has an IC50 ([1]; Dictyostelium discoideum) of 1.47 µM, an IC50 ([2]; Mycobacterium marinum) of 47.6 µM and an IC50 [3] of 0.59 µM. The “MIC on Sa” value [5] was “not active”.
